Reference: US20190275058A1, “COMPOSITIONS AND METHODS FOR TREATING ADDICTION OR SUBSTANCE USE DISORDERS” (EMBERA NEUROTHERAPEUTICS, INC., priority 2016, published 2019)
Entries after “also recorded” stand apart in the source; their conditions may differ. Like-named read-outs stand apart in the source and are kept apart here.

Key:
[1] = system: adult male Wistar rats; experiment: Cue-induced reinstatement of extinguished cocaine seeking; format: in vivo, rat; settings: for reinstatement of extinguished cocaine seeking: pretreatment, summary of the studies
Excerpt: Training to self-administer cocaine: In one model, rats were exposed to alternating 15-minute periods of access to cocaine self-administration and food reinforcement. Food was used to control for potential nonspecific, ataxis effects of the drugs and combinations. […] The other preclinical model that has been used is the cue-induced reinstatement of extinguished cocaine seeking model of relapse. In this model, rats are trained to self-administer cocaine and the ability of conditioned cues in the environment to reinstate extinguished responding is assessed and taken as a measure of relapse.
Cue-induced Reinstatement of Extinguished Cocaine Seeking: The experiments described herein were designed to investigate whether or not drug combinations identified as effective in reducing cocaine self-administration would also block the ability of conditioned cues to reinstate extinguished cocaine-seeking behavior. Adult male Wistar rats were implanted with chronic jugular catheters and trained to self-administer cocaine (0.25 mg/kg/infusion) by pressing one of the response levers in the experimental chamber (i.e., the “active” or “cocaine” lever) under a fixed-ratio […] schedule of reinforcement during daily 2-hour sessions conducted 5 days per week. At the start of each session, both levers were extended into the chamber and the stimulus light above the active lever was illuminated to indicate the availability of cocaine. […] A 20-second timeout period followed each infusion. The stimulus light above the active lever and the house light and tone compound stimulus were extinguished during the timeout period, and the light above the active lever was illuminated once the timeout ended. When responding on the active lever varied less than 20% for two consecutive days, the response requirement was increased to FR2. When similar stability was observed under the FR2 schedule or reinforcement, the response requirement was increased to the final ratio of four. The criteria for stable responding under the FR4 schedule of reinforcement was a minimum of 10 days of exposure to this schedule that concluded with at least three consecutive days when responding varied by less than 10%. […] Once stable cocaine self-administration was observed, rats were exposed to extinction; the rats were placed into the behavioral chambers, but responding on the “cocaine” (active) lever produced no programmed consequences. Extinction training continued until responding decreased to less than 20% of baseline self-administration. Then reinstatement testing commended. The rats were placed into the experimental chambers, both response levers were extended into the chamber, and the stimulus light above the “active” lever was illuminated as during self-administration training. […] Responding on the “active” lever during reinstatement testing was taken as, an index of cocaine-seeking behavior. Each experimental group consisted of […].

[2] = system: adult male Wistar rats; experiment: Intravenous cocaine self-administration under a multiple, alternating schedule of food reinforcement and cocaine self-administration; format: in vivo, rat
Method: Adult male Wistar rats were trained under a multiple, alternating schedule of cocaine and food self-administration. This schedule consisted of alternating periods of cocaine access and food reinforcement. In some instances, as described further below, three doses of cocaine (0.125, 0.25, or 0.50 mg/kg/infusion) were tested. Rats were also periodically trained with saline substitution (cocaine extinction) and food extinction during the same session.
More specifically, adult male Wistar rats were implanted with chronic jugular catheters. Following recovery from surgery, the rats were trained to respond under a multiple, alternating schedule of food reinforcement and cocaine self-administration. Food-maintained responding was used to control for the non-specific motor effects of the various treatments. During the food component of the schedule, the stimulus light located above the food response lever was illuminated to indicate the availability of food reinforcement. […] A 25-second timeout followed the delivery of each food pellet. During this timeout, the stimulus light was darkened and responses on the food lever were counted but had no scheduled consequences. Responding on the other (cocaine) lever during the food component also had no scheduled consequences. […] Following 15 minutes of access to food, all stimulus lights in the chamber were darkened for a 1-minute timeout. Following the timeout, the stimulus light above the cocaine response lever was illuminated to indicate the availability of cocaine (0.125, 0.25, or 0.5 mg/kg/infusion). […] A 20-second timeout period followed each infusion. […] After 15 minutes of access to cocaine and a 1-minute timeout, the rats were again allowed 15 minutes access to the food component of the schedule. Access to food and cocaine alternated in this manner every 15 minutes during the two hour behavioral sessions so that each rat was exposed to food and cocaine for four 15-minute periods each. Each behavioral session began with 15 minutes access to either food or cocaine, and this alternated daily. Stable baselines of responding were established when the total number of cocaine and food presentations, as well as the number of presentations during each of the four exposures each session, varied less than 10% for three consecutive sessions. At least three different doses of cocaine (e.g., 0.125, 0.25, and 0.5 mg/kg/infusion) were tested. Rats were first trained to self-administer 0.25 mg/kg/infusion, which was the standard dose of cocaine used. When responding stabilized, the dose was changed to 0.125 or 0.5 mg/kg/infusion as appropriate.
Once stable baselines of responding were obtained, dose-response curves for the various compounds were individually generated for each rat. Rats were treated with each dose at least twice with a minimum of two days of baseline cocaine self-administration interspersed between each test. Each group of rats was tested with only two of the test compounds to minimize potential carryover effects.

[3] = system: rats; settings: pretreatment, literature; cited from earlier work
[4] = system: smokers; settings: smoking cessation therapy; cited from earlier work
[5] = Pharmacokinetic interaction between cocaine, metyrapone and oxazepam (plasma concentrations, GCMS); format: in vivo, rat
Method: Thirty minutes following the drug combination or vehicle injection, the rats received intravenous injections of cocaine (0.25 mg/kg/infusion) every 2 minutes for 1 hour. After the final injection of cocaine, blood was collected from the catheter for the analysis of cocaine and its metabolites ecgonine methyl ester and benzoylecgonine. […] All drug concentrations were determined using GCMS procedures.

[6] = Phase I single- and multiple-rising dose study: plasma pharmacokinetics; design: species or system human; settings: in vivo; for change of half-lives at different doses or with repeated dosing / Tmax / half-life: human; for half-life: t1/2
Excerpt: Total daily doses were double these amounts on BID dosing days. Primary outcomes were safety and pharmacokinetics of MET, its active metabolite (metyrapol), and OX. Safety measures included vital signs, ECGs an standard safety labs. Cortisol and other HPA axis parameters were monitored closely throughout the study.
They were not seeking to quit smoking. […] Primary outcomes were safety and pharmacokinetics.

[7] = system: male Wistar rats; experiment: Forced Swim Test (FST), animal model of depression
[8] = high dose, ip pretreatment, drug alone
[9] = low, ineffective dose, ip pretreatment, drug alone
[10] = pretreatment, summary of the studies

CCCCN(CC)c1nc(C)nc2c1c(C)cn2-c1c(C)cc(C)cc1C [CP-154,526]
reinstatement of extinguished cocaine seeking [1]: decrease
cocaine self-administration [2, 8]: reduced cocaine self-administration
cocaine self-administration [2, 9]: did not significantly affect
cocaine self-administration [2, 10]: decrease cocaine self-administration

Cc1nnc2n1-c1ccc(Cl)cc1C(c1ccccc1)=NC2 [alprazolam]
cocaine self-administration [3]: reduced responding maintained by both food and cocaine
reinstatement of extinguished cocaine seeking [1]: decrease
cocaine self-administration [2, 8]: reduced cocaine self-administration
cocaine self-administration [2, 9]: did not significantly affect
cocaine self-administration [2, 10]: decrease cocaine self-administration

CC(NC(C)(C)C)C(=O)c1cccc(Cl)c1 (centres unmarked) [bupropion]
one year quit rate [4]: 15.5%

COC(=O)[C@H]1[C@@H](OC(=O)c2ccccc2)C[C@@H]2CC[C@H]1N2C [cocaine]
effect on plasma concentrations of metyrapone or oxazepam ([5]; rats, presence of cocaine): did not affect the plasma concentrations of metyrapone or oxazepam

CC(=O)N1CCN(c2ccc(OCC3COC(Cn4ccnc4)(c4ccc(Cl)cc4Cl)O3)cc2)CC1 (centres unmarked) [ketoconazole]
cocaine self-administration [3]: reduced cocaine self-administration
reinstatement of extinguished cocaine seeking [1]: decrease
cocaine self-administration [2, 9]: no effect; also recorded: did not significantly affect
cocaine self-administration [2, 10]: decrease cocaine self-administration
minimally effective dose that reduced cocaine self-administration by at least 50% without affecting food-maintained responding ([2]; rats): 25 mg/kg

CC(C)(c1cccnc1)C(O)c1cccnc1 (centres unmarked) [metyrapol]
change of half-lives at different doses or with repeated dosing [6]: did not change substantially
Tmax ([6]; Tmax): 2 h
half-life [6]: 8.41 h

CC(C)(C(=O)c1cccnc1)c1cccnc1 [metyrapone]
influence on plasma concentrations of each other ([5]; rat, in vivo, ip): did not influence plasma concentrations of each other
change of half-lives at different doses or with repeated dosing [6]: did not change substantially
Tmax ([6]; Tmax): 1.5 h
half-life [6]: 2.04 h
accumulation with repeated dosing [6]: Modest accumulation
cocaine self-administration [3]: significant dose-related decreases
immobility time ([7]; chronic, individual drug, Met50 group): showed a lessening of immobility time
group means of immobility versus vehicle (tolerance) ([7]; chronically treated groups, drug alone): equal to or exceeded the vehicle
cue-induced reinstatement of extinguished cocaine seeking ([1]; chronic, 50 mg/kg, ip, once per day for 14 days): reduced cocaine seeking to levels seen when only saline was delivered
reinstatement of extinguished cocaine seeking [1]: decrease
cocaine self-administration [2, 8]: reduced cocaine self-administration
cocaine self-administration [2, 9]: did not significantly affect
cocaine self-administration [2, 10]: decrease cocaine self-administration

NCc1cc(=O)[nH]o1 [muscimol]
cocaine self-administration [2, 8]: reduced cocaine self-administration
cocaine self-administration [2, 9]: did not significantly affect

O=C1Nc2ccc(Cl)cc2C(c2ccccc2)=NC1O (centres unmarked) [oxazepam]
Tmax ([6]; human plasma, 270 mg Metyrapone/12 mg Oxazepam, Day 1, median, n 6, read-out: Tmax): 3.5 h
Tmax ([6]; human plasma, 270 mg Metyrapone/12 mg Oxazepam, Day 10, median, n 6, read-out: Tmax): 3 h
Tmax ([6]; human plasma, 540 mg Metyrapone/24 mg Oxazepam, Day 1, median, n 6, read-out: Tmax): 3 h
Tmax ([6]; human plasma, 540 mg Metyrapone/24 mg Oxazepam, Day 10, median, n 6, read-out: Tmax): 3 h
Tmax ([6]; human plasma, 720 mg Metyrapone/24 mg Oxazepam, Day 1, median, n 6, read-out: Tmax): 4 h
Tmax ([6]; human plasma, 720 mg Metyrapone/24 mg Oxazepam, Day 10, median, n 6, read-out: Tmax): 3 h

c1cnc2cc3c(cc2n1)[C@@H]1CNC[C@H]3C1 [varenicline]
one year quit rate [4]: 22.5%
